What was measured:
[1] = test system: bone cancer pain model in rat (Walker 256 cells); assay: Paw withdrawal thermal latency (PWL) in bone cancer pain model; format: in vivo, SD rats; conditions: 20 mg/kg, i.g.
Experimental: 1. Animals 50 SD rats (180-220 g), placed under a quiet and warm (22° C.) environment without strong light irradiation, having free access to feed and water.
2. Cell Culture: SD Rat homologous cancer cell strains Walker 256 preserved by the Laboratory Animal Center, Forth Military Medical
University, or a commercially available product can be used. RPMI 1640 culture medium (Gibco Inc. of US, containing 100 U/ml each of 10% fetal bovine serum, penicillin, and streptomycin) was used, and the tumor cells were incubated as suspension cells in a 37° C. incubator under 5% CO2, with the medium replaced every other day, and 2 days for 1 passage. The cells were harvested at the 3rd passage, with a cell concentration of 2×10^5/10 μl.
3. Establishment of bone cancer pain model in rat: the rats were operated at the left knee with a small incision after anesthesia (40 mg/kg of pentobarbital sodium) according to sterile surgical operation procedures, the muscle was stripped off gently and the patellar ligament is cut open to expose the distal femur, with 1 mm syringe needle inserted from the intercondylar fossa vertically into the marrow cavity, with an inserting distance no more than 5 mm to prevent punching. Then a 20 μl micro-injector was inserted into the marrow cavity to slowly inject 10 μl of a suspension containing the Walker 256 cells (2×10^5 cancer cells per 10 μl). The injector was stayed there for a few minutes after the injection, and then the needle pinhole was immediately sealed with sterile bone wax. The tumor cells leaking out of the marrow cavity were killed with 75% ethyl alcohol, and then the rat was sutured under sterile conditions layer by layer. The same operation was performed in the sham operation group, except that only the same volume of sterile saline was injected into the marrow cavity slowly.
6. Drug intervention: On day 18 after the surgical operation, the SD rats of the operation group were randomized into 6 groups, i.e., respectively the model group; non-crystalline NB001 group (20 mg/kg, i.g.); the group of the crystal of the present invention (20 mg/kg, i.g.); morphine (2 mg/kg, i.p.); and gabapentin (100 mg/kg, i.g.). The new crystal form and non-crystalline form of the AC1 inhibitor NB001 were both formulated with sterile saline, and morphine and gabapentin were used as positive control drugs. All drugs were administered twice daily for 3 days, and the pain threshold was measured within 2 hours after the last administration on day 3
7. Assessment of rat pain behavior:
Paw withdrawal thermal latency (PWL): the PWL was measured by using a PL-200 thermal pain stimulator (8V, 50 W, with a strength of 100%). The time period since the time irradiating the middle portion of the planta pedis at the operation side of the rat with light till the time the rat lifted its leg to keep out of the light was TWL. To prevent tissue injury, a cut-off time of 80 s was set, each rat was measured for 3 times with an interval of 5 min, and the results were averaged.

[2] = test system: mice after neuropathic pain; assay: Elevated plus maze test (EPM), neuropathic pain; format: in vivo; conditions: 3 mg/kg IP, 3 mg/kg
Experimental: An anxious animal model of the prior art—the elevated plus maze test (EPM) was adopted. The mice were acclimated for 30 minutes in the room prior to the behavior observation. The EPM was composed of two open arms (250 lux) and two closed arms (350 lux) arranged opposite to each other. For each test, an individual animal was placed at the center of the test position and allowed to move freely. The test is carried out for 5 minutes. The number of entering the test position for each arm and the time spent therefore were recorded.
The other two sets of tests were conducted to test the effect of the crystal of the present invention on inhibiting anxiety caused by chronic pain and neuropathic pain.
(§1) The EPM test tested the anxiety behavior of mice after the test treatment. The physiological saline, non-crystalline NB001 (3 mg/kg), the crystal of the present invention (3 mg/kg), and Gabapentin (30 mg/kg) as a positive control were intraperitoneally injected (IP) into the mice treated with yeast polysaccharide respectively. The behaviors of Mice were observed 28 days after the yeast polysaccharide treatment.

[3] = test system: mice treated with yeast polysaccharide; assay: Visceral pain behavior test in chronic visceral pain model; format: in vivo; conditions: 3 mg/kg IP
Experimental: Chronic Visceral Pain Model
The visceral pain is induced by injecting yeast polysaccharide into the mice colony, and the yeast polysaccharide is derived from Saccharomyces cerevisiae (Sigma), wherein one kind of dextran is resident on the cell wall of the yeast and is identified as a protein-carbohydrate complex. Specifically, the mice were anesthetized after inhaling 1-3% isoflurane, and then a […] suspension of yeast polysaccharide (formulated as a 30 mg/ml solution in physiological saline) was injected into the colon of the mice by using a 24 mm long plastic feed needle within 2 minutes. The control group was injected with 0.1 ml physiological saline. The yeast polysaccharide or physiological saline was injected daily for 3 days. A visceral pain behavior test was carried out according to the Laird procedure. The number of times the mice licking the abdomen within 10 minutes was recorded, excluding other grooming behaviors, stretching of whole body, pressing the abdomen against the floor, and an 1-2-second arched posture. On day 1, 7 and 14 after the injection into the colon, an open field test was carried out from 9 am to 12 pm, and the entire test was a double-blind test. Prior to the behavioral test, the mice were acclimated for 30 minutes in an observation room. The mice were placed at the middle of a new open zone (43.2×43.2×30.5 cm^3) with micro light (<50 lux) and a fan. The movement distance, vertical count, movement count, stereotypic behavior count, and jumping count of animals were recorded within 30 minutes by means of an activity monitoring system equipped with multiple pairs of packaged light beam sets.
as §1, with “The” for “The EPM test tested the anxiety behavior of mice after the test treatment. The”

**Q.** With `Nc1ncnc2c1ncn2CCNCCCCCO` [New NB001, 5-(((2-(6-amino)-9H-purin-9-yl)ethyl)amino)pentan-1-ol] as the molecule, how does the “analgesic effect (PWL) as compared with the model group” value ([1]; twice daily for 3 days, PWL at 2 h after last administration (21d)) read?
**A.** The value was “better analgesic effect”.

**Q.** What about the “significance of the analgesic effect (PWL), FIG. 7” value ([1]; P<0.01) of the same molecule?
**A.** Its value is “extremely significant”.

**Q.** And the “% time in the open arm” value [2]?
**A.** The value was 18.5 ± 1.4 (8) %.

**Q.** And the “Number of visceral pain scores” value ([3]; 28 days after yeast polysaccharide treatment)?
**A.** Its value is 11.0 ± 0.7.

**Q.** And the “therapeutic effect on chronic pain as compared with the positive control group” value ([3]; Table 6, listed as the crystal of the present invention)?
**A.** The value was “extremely significant”.

— US9963457B2, “Crystal of 5-((2-(6-amino)-9H-purin-9-yl)ethyl)amino)pentan-1-o1” (FOREVER CHEER INTERNATIONAL LIMITED, priority 2016, dated 2018)
